The source of these data is patent US4649911A, “Small particle aerosol generator for treatment of respiratory disease including the lungs” (Baylor College of Medicine, priority 1986, dated 1987).

For this data set the following is noted: human, in vivo.

Description: The following hematologic studies were performed at admission and at discharge from the hospital: hematocrit, red cell count, white cell count, differential white cell count, hemoglobin concentration and reticulocyte count. Biochemical tests as follows were performed on admission, at discharge, and one month later: indirect bilirubin, direct bilirubin, total bilirubin, blood urea nitrogen, creatinine, glucose, calcium, phosphorus, albumin, total protein, alkaline phcsphatase, serum aspartate transminase (ASP), and serum alanine transaminase (ALT), lactic dehydrogenase (LDH), creatine phosphokinase (CPK), uric acid, and aldolase.
Clinical chemical tests were performed on 14 treated and 17 control patients at admission; at discharge there were 13 treated and 15 controls, and at one month there were 11 and 17 sets of tests performed.

Take `NC(=O)c1ncn([C@@H]2O[C@H](CO)[C@@H](O)[C@H]2O)n1` [ribavirin]: the absolute lymphocyte count result was “more than doubled”.
